Converted amounts (≈) assume the structure as drawn. Read-outs that look alike come from different tables or passages of the source.
What was measured:
human (hACC2) = human (hACC2) (Homo sapiens, UniProt O00763); assay: In vitro ACC inhibition assay (ADP-Glo), hACC2; type: biochemical; conditions: 5 nM ACC2, 20 μM ATP, 20 μM acetyl-CoA
Experimental: The detailed procedure is as follows. […] 10 μL ADP glo reagent was added. […] 20 μL kinase detection reagent was added.

Rhizoctonia solani (Rs) = assay: Growth inhibition assay of fungal pathogens, Rs; type: cell-based; conditions: 48 h
Experimental: Compounds of the present invention were evaluated in a growth inhibition assay to determine the ability to control the growth of fungal pathogens, such as Botrtyis cinerea (Bc), Collectotrichum graminicola (Cg), Diplodia maydis (Dm), Fusarium moniliforme (Fm), Fusarium virguliforme (Fv), Phytophthora capsici (Pc), Rhizoctonia solani (Rs), and Septoria tritici (St).
Compounds to be tested were dissolved in DMSO at 2.5 mg/ml to produce compound stock solutions (“stocks”). Stocks were diluted with DMSO by a five-fold dilution in a 96-well stock plate, and two sets of final concentrations of 50, 10, and 2 ppm or 2, 0.4, and 0.08 ppm were obtained in vitro. A set of positive controls was also prepared, with various concentrations of Soraphen (2, 0.4, and 0.08 ppm), Metalaxyl (1.1, 0.22, and 0.04 ppm), and Metconazole (2, 0.4, and 0.08 ppm or 0.2, 0.04, and 0.008 ppm) after the five-fold dilutions. Negative controls on each plate included 2% DMSO, water, and a blank (media+2% DMSO).
Fungal spores were isolated from previously sub-cultured plates of Botrtyis cinerea (Bc), Collectotrichum graminicola (Cg), Diplodia maydis (Dm), Fusarium moniliforme (Fm), Fusarium virguliforme (Fv), Phytophthora capsici (Pc), and Septoria tritici (St). The isolated spores were diluted to individual concentrations with a 17% V8 liquid media. For Rhizoctonia solani (Rs) and Pythium irregulare, 1.5 mm mycelial plugs were used in place of spores and/4 Potato Dextrose Broth (PDB) was used for dilution. The spore concentrations and plug sizes were based on growth curves generated at 48 hours for each pathogen.
In a second 96-well plate, the spores or mycelial plugs, media, diluted compound solutions, and controls were combined. Once the compound was added, a true final concentration of compound in each well was measured by an OD600 reading, which adjusted for any compound precipitation that might have occurred in the well. Plate readings were repeated at both 24 and 48 hours. The blank negative control was used as a background subtraction. Additional visual ratings were performed at both 24 and 48 hours for checking on precipitation and confirming efficacy. Visual and OD600 ratings of the compounds at 48 hours were compared to the 2% DMSO negative control, and the percent of pathogen growth inhibition was determined based on those values.

C. albicans = assay: Antifungal Activity Assay (broth microtiter MIC), C. albicans; type: cell-based, Candida albicans; conditions: Candida albicans, ATCC90028, 48 h
Procedure, shortened: (§1)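 MIC read by eye at 48 h, comparing challenged wells with the growth control. Yeasts grown overnight on Sabouraud dextrose agar at 35° C, suspended in RPMI 1640+MOPS and added at 2.5×10^3 CFU/mL final, following CLSI M27-A3.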

C. krusei = assay: Antifungal Activity Assay (broth microtiter MIC), C. krusei; type: cell-based, Candida krusei; conditions: Pichia kudriavzevii, ATCC6258, 48 h
Procedure, shortened: as §1

C. parapsilosis = assay: Antifungal Activity Assay (broth microtiter MIC), C. parapsilosis; type: cell-based, Candida parapsilosis; conditions: Lodderomyces parapsilosis, ATCC22019, 48 h
Procedure, shortened: as §1

fungal (fACC2) = fungal (fACC2) (UniProt Q00955); conditions: read-out: fACC2 (in vitro ACC2 Inhibition Assay, IC50); Table 2b, additional results; ADP-Glo, 5 nM ACC2, 20 μM ATP, 20 μM acetyl-CoA
fungal (fACC2), sequence (Q00955 whole entry): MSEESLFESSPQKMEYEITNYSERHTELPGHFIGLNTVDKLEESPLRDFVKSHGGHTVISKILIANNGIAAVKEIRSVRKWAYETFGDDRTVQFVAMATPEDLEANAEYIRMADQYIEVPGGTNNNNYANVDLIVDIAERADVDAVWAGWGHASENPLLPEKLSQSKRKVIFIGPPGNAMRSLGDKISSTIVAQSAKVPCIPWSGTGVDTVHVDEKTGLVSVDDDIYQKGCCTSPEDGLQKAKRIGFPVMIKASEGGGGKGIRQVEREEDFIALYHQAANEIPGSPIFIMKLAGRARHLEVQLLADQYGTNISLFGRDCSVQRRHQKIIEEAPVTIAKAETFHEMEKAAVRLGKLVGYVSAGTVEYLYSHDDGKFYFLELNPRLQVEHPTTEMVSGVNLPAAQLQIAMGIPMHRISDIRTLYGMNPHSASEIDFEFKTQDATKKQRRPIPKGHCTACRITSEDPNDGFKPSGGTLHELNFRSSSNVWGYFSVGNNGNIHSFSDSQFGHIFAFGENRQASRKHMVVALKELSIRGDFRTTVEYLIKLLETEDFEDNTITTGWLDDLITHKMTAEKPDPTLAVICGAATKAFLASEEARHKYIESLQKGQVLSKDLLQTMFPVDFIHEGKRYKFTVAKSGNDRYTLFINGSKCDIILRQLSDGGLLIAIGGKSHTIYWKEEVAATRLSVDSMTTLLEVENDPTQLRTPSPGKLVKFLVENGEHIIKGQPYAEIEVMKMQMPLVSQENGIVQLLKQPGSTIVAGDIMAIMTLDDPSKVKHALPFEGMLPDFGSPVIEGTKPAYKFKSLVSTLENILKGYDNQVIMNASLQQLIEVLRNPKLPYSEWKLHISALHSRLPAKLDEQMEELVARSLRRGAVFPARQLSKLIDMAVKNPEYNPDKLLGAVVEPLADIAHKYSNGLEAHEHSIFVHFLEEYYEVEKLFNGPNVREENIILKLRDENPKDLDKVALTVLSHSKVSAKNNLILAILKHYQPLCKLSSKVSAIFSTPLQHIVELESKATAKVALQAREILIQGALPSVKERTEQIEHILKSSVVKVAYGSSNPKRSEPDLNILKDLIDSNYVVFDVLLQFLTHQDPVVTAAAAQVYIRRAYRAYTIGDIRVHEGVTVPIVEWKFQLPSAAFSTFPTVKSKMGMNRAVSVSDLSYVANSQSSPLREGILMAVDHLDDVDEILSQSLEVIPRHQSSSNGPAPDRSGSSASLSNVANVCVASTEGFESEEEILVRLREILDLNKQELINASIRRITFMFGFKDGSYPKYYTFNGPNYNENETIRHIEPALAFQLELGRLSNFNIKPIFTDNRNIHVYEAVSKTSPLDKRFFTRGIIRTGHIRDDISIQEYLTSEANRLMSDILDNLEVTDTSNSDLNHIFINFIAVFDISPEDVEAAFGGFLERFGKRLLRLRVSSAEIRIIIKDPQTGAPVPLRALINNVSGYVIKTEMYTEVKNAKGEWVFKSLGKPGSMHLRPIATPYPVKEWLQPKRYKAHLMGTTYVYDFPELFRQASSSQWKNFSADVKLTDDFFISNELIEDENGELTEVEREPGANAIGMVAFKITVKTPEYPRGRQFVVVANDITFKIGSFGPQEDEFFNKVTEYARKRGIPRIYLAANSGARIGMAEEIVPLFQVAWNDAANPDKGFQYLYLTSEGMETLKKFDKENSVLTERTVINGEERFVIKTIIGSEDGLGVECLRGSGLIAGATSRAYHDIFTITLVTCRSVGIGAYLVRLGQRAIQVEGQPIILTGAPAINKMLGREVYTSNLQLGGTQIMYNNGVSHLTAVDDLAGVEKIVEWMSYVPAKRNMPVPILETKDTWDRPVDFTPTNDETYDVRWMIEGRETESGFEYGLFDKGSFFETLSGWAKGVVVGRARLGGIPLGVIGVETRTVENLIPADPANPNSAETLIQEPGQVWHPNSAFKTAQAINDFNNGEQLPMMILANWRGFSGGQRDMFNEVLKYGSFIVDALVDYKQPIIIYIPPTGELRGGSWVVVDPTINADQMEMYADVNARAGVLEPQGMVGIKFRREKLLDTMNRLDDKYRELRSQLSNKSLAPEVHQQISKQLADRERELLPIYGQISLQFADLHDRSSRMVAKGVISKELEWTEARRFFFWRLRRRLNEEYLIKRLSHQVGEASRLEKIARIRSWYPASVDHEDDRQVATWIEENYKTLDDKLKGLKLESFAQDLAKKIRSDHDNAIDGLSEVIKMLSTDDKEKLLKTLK

[1] = read-out: Concentration at 90% Inhibition Rs, Rhizoctonia solani, mycelial plugs, growth inhibition at 48 hours vs 2% DMSO control
[2] = read-out: Concentration at 90% Inhibition Rs, Rhizoctonia solani, mycelial plugs, growth inhibition vs 2% DMSO control at 48 hours
[3] = mycelial plugs, growth inhibition at 48 hours vs 2% DMSO control, read-out: Concentration at 90% Inhibition Rs
[4] = mycelial plugs, growth inhibition vs 2% DMSO control at 48 hours, read-out: Concentration at 90% Inhibition Rs
[5] = Table 3b (additional results), ATCC 90028, 3 replicates, MIC recorded at 48 h, read-out: MIC, C. albicans ATCC 90028
[6] = Table 3b (additional results), ATCC 6258, 3 replicates, MIC recorded at 48 h, read-out: MIC, C. krusei ATCC 6258
[7] = Table 3b (additional results), ATCC 22019, 3 replicates, MIC recorded at 48 h, read-out: MIC, C. parapsilosis ATCC 22019

human (hACC2), sequence (O00763 whole entry): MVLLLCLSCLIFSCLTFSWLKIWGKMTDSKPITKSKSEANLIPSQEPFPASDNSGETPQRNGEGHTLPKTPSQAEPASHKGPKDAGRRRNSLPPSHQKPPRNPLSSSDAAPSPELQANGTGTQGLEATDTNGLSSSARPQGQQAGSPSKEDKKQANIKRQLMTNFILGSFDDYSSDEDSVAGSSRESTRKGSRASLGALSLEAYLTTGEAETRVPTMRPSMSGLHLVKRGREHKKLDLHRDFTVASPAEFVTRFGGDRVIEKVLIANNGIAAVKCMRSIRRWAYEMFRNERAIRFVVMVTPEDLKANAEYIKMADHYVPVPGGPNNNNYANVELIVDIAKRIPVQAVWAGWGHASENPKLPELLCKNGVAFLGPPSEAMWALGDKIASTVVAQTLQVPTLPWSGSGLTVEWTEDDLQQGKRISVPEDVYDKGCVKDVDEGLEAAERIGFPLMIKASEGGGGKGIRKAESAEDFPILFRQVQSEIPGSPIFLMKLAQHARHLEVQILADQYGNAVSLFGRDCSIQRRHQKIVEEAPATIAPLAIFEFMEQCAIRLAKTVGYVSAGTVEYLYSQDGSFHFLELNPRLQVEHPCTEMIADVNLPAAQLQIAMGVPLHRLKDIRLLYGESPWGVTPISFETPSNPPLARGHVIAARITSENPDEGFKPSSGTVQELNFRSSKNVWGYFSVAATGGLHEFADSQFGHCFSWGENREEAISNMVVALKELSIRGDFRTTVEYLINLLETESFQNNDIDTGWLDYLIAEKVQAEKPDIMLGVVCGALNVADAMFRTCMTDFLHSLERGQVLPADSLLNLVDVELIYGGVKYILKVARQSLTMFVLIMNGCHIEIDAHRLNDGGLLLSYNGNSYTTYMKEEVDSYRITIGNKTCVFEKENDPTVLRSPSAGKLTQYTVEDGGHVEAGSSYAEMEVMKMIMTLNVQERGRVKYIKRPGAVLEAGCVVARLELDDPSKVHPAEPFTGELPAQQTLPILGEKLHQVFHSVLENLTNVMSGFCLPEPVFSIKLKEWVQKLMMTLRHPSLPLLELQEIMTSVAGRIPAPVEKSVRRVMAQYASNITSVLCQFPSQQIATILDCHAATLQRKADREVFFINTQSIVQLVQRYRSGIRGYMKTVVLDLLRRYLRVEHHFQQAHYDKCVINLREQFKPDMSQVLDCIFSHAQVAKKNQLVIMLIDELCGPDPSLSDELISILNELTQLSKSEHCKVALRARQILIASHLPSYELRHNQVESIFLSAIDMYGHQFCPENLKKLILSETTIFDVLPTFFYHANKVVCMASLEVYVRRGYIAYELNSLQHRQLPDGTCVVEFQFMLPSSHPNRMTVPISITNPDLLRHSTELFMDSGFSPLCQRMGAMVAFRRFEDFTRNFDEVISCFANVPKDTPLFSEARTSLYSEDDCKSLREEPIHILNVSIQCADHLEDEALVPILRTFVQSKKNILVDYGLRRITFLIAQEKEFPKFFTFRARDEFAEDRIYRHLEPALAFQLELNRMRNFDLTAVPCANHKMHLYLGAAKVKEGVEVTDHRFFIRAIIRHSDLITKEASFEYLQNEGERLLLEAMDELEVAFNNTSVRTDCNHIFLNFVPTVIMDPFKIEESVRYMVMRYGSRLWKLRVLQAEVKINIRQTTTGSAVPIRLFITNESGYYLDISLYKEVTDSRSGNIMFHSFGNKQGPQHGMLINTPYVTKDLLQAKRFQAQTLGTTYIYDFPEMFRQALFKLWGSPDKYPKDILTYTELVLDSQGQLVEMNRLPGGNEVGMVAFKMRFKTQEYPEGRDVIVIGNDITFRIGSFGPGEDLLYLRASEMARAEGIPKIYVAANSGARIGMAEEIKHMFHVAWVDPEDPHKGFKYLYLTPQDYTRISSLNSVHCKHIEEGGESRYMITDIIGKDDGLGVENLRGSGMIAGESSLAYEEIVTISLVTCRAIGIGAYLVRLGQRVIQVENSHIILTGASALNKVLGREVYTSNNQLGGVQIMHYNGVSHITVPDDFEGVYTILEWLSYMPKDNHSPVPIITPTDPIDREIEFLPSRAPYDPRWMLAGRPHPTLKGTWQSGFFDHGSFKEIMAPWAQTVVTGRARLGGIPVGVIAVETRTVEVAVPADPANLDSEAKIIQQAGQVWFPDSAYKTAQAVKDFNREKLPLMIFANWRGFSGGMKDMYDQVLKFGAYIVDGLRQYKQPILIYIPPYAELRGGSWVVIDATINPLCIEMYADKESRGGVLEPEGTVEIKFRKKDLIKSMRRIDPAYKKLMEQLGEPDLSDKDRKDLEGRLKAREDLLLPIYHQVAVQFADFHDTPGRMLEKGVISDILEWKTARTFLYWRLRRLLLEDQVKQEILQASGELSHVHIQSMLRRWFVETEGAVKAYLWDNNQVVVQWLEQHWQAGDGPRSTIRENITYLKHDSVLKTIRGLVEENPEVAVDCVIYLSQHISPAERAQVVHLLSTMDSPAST

COc1ccc(F)cc1[C@H](Cn1c(=O)n(C(C)(C)C(=O)NC(C)C)c(=O)c2c(C)c(-n3nccn3)sc21)OCC(C)C [Compound I-10, (R)-2-(1-(2-(5-fluoro-2-methoxyphenyl)-2-isobutoxyethyl)-5-methyl-2,4-dioxo-6-(2H-1,2,3-triazol-2-yl)-1,4-dihydrothieno[2,3-d]pyrimidin-3(2H)-yl)-N-isopropyl-2-methylpropanamide]
IC50 (human (hACC2); Table 2a): 10 to 40 nM | IC50 (human (hACC2); Table 2b, additional results): 10 to 40 nM | IC90 (Rhizoctonia solani (Rs); [1]): 0.4 µg/mL (≈ 0.666 µM) | IC90 (Rhizoctonia solani (Rs); [2]): 0.4 µg/mL (≈ 0.666 µM)

COc1ccccc1[C@H](Cn1c(=O)n(C(C)(C)C(=O)NCC(C)C)c(=O)c2c(C)c(-n3nccn3)sc21)OC1CCOCC1 [Compound I-13, (R)—N-isobutyl-2-(1-(2-(2-methoxyphenyl)-2-((tetrahydro-2H-pyran-4-yl)oxy)ethyl)-5-methyl-2,4-dioxo-6-(2H-1,2,3-triazol-2-yl)-1,4-dihydrothieno[2,3-d]pyrimidin-3(2H)-yl)-2-methylpropanamide]
IC50 (human (hACC2); Table 2a): 5 to 10 nM | IC50 (human (hACC2); Table 2b, additional results): 5 to 10 nM | IC90 (Rhizoctonia solani (Rs); [3]): 0.08 µg/mL (≈ 0.128 µM) | IC90 (Rhizoctonia solani (Rs); [4]): 0.08 µg/mL (≈ 0.128 µM)

COc1ccccc1[C@H](Cn1c(=O)n(C(C)(C)C(=O)NC(C)C)c(=O)c2c(C)c(-n3nccn3)sc21)OC1CCOCC1 [Compound I-16, (R)—N-isopropyl-2-(1-(2-(2-methoxyphenyl)-2-((tetrahydro-2H-pyran-4-yl)oxy)ethyl)-5-methyl-2,4-dioxo-6-(2H-1,2,3-triazol-2-yl)-1,4-dihydrothieno[2,3-d]pyrimidin-3(2H)-yl)-2-methylpropanamide]
IC50 (human (hACC2); Table 2a): 5 to 10 nM | IC50 (human (hACC2); Table 2b, additional results): 5 to 10 nM | IC90 (Rhizoctonia solani (Rs); [1]): 0.4 µg/mL (≈ 0.655 µM) | IC90 (Rhizoctonia solani (Rs); [2]): 0.4 µg/mL (≈ 0.655 µM)

COc1ccccc1[C@H](Cn1c(=O)n(C(C)(C)C(=O)N2CCCCC2)c(=O)c2c(C)c(-n3nccn3)sc21)OC1CCOCC1 [Compound I-17, (R)-1-(2-(2-methoxyphenyl)-2-((tetrahydro-2H-pyran-4-yl)oxy)ethyl)-5-methyl-3-(2-methyl-1-oxo-1-(piperidin-1-yl)propan-2-yl)-6-(2H-1,2,3-triazol-2-yl)thieno[2,3-d]pyrimidine-2,4(1H,3H)-dione]
IC50 (human (hACC2); Table 2a): 5 to 10 nM | IC50 (human (hACC2); Table 2b, additional results): 5 to 10 nM | IC90 (Rhizoctonia solani (Rs); [1]): 0.08 µg/mL (≈ 0.126 µM) | IC90 (Rhizoctonia solani (Rs); [2]): 0.08 µg/mL (≈ 0.126 µM)

COc1ccccc1[C@H](Cn1c(=O)n(C(C)(C)C(=O)N2CCCC2)c(=O)c2c(C)c(-n3nccn3)sc21)OC1CCOCC1 [Compound I-18, (R)-1-(2-(2-methoxyphenyl)-2-((tetrahydro-2H-pyran-4-yl)oxy)ethyl)-5-methyl-3-(2-methyl-1-oxo-1-(pyrrolidin-1-yl)propan-2-yl)-6-(2H-1,2,3-triazol-2-yl)thieno[2,3-d]pyrimidine-2,4(1H,3H)-dione]
IC50 (human (hACC2); Table 2a): 5 to 10 nM | IC50 (human (hACC2); Table 2b, additional results): 5 to 10 nM | IC90 (Rhizoctonia solani (Rs); [3]): 0.08 µg/mL (≈ 0.128 µM) | IC90 (Rhizoctonia solani (Rs); [4]): 0.08 µg/mL (≈ 0.128 µM)

CCc1ccccc1[C@H](Cn1c(=O)n(C(C)(C)C(=O)NC(C)C)c(=O)c2c(C)c(-n3nccn3)sc21)O[C@H]1CC[C@@H](C#N)CC1 [Compound I-242]
IC50 (human (hACC2); Table 2b, additional results): 1 to 5 nM | MIC (C. albicans; read-out: MIC, C. albicans ATCC 90028, Table 3b (additional results), 3 replicates, MIC recorded at 48 h): 1.01 to 2 µg/mL (≈ 1.6 to 3.17 µM) | MIC (C. krusei; read-out: MIC, C. krusei ATCC 6258, Table 3b (additional results), 3 replicates, MIC recorded at 48 h): 1.01 to 2 µg/mL (≈ 1.6 to 3.17 µM) | MIC (C. parapsilosis; read-out: MIC, C. parapsilosis ATCC 22019, Table 3b (additional results), 3 replicates, MIC recorded at 48 h): 1.01 to 2 µg/mL (≈ 1.6 to 3.17 µM) | IC50 (fungal (fACC2)): 1 to 5 nM

CCc1ccc(F)cc1[C@H](Cn1c(=O)n(C(C)(C)C(=O)NC(C)C)c(=O)c2c(C)c(-n3nccn3)sc21)OC[C@H](C)C#N [Compound I-243]
IC50 (human (hACC2); Table 2b, additional results): > 40 nM | MIC (C. albicans; [5]): 2.01 to 4 µg/mL (≈ 3.3 to 6.56 µM) | MIC (C. krusei; [6]): > 4.01 µg/mL | MIC (C. parapsilosis; [7]): 2.01 to 4 µg/mL (≈ 3.3 to 6.56 µM) | IC50 (fungal (fACC2)): 1 to 5 nM

CCc1ccc(F)cc1[C@H](Cn1c(=O)n(C(C)(C)C(=O)NC(C)C)c(=O)c2c(C)c(-n3nccn3)sc21)OC[C@@H](C)C#N [Compound I-244]
IC50 (human (hACC2); Table 2b, additional results): > 40 nM | MIC (C. albicans; [5]): 2.01 to 4 µg/mL (≈ 3.3 to 6.56 µM) | MIC (C. krusei; [6]): > 4.01 µg/mL | MIC (C. parapsilosis; [7]): 2.01 to 4 µg/mL (≈ 3.3 to 6.56 µM) | IC50 (fungal (fACC2)): 1 to 5 nM

Cc1c(-n2nccn2)sc2c1c(=O)n(C(C)(C)C(=O)NC(C)C)c(=O)n2C[C@H](OCCC#N)c1cc(F)ccc1OCc1ccccc1 [Compound I-249]
IC50 (human (hACC2); Table 2b, additional results): 5 to 10 nM | MIC (C. albicans; [5]): 2.01 to 4 µg/mL (≈ 2.98 to 5.94 µM) | MIC (C. krusei; [6]): 2.01 to 4 µg/mL (≈ 2.98 to 5.94 µM) | MIC (C. parapsilosis; [7]): 1.01 to 2 µg/mL (≈ 1.5 to 2.97 µM) | IC50 (fungal (fACC2)): 0.3 to 1 nM

— US10800791B2, “Triazole ACC inhibitors and uses thereof” (Gilead Apollo, LLC, priority 2015, dated 2020)
